This is an account of results in patent publication US11661583B2, “Drug discovery platform for Duchenne cardiomyopathy” (University of Washington, priority 2015, dated 2023).

Structures can show the parent of a compound that is named as a salt. Where two headings read alike, the source gives them in different places.

Data set [1] relates to dystrophin deficient cardiomyocytes. The experiment in a line: High-throughput hypotonic stress cell viability (intracellular ATP) screen. The settings on record: for Average of % viability: 384-well, 18 hours compound incubation, then 30 minutes at 12.5% normal osmolarity, CELLTITER-GLO, vs average of DMSO control wells, tested at 10^-8 to 10^-5 M, concentration not given; for Z score / Effect on viability in hypotonic stress screen (in words): primary screen; for Z score: data points ranked by Z score; for Effect on viability in hypotonic stress screen (in words): dose-response, FIG. 8.

For data set [2] the test system is unchanged.
In another data set the test system is dystrophin locus. The experiment in a line: SURVEYOR assay of guide RNA targeting efficiency in HEK293T cells. It is filed as cell-based, human. The settings on record: FIG. 9A. From the text: (THERMO […], Waltham, Mass.) using primer set […] ID NO:3) and […] ID NO:4).

`C=CC1=C(C(=O)O)N2C(=O)[C@@H](NC(=O)/C(=N\O)c3csc(N)n3)[C@H]2SC1`: in data set [1], the “Average of % viability” value is on record as 185.70 ± 45.76% and the Z score is 4.16.

Take `CC(=O)c1ccc2c(c1)N(CCCN(C)C)c1ccccc1S2` [ACEPROMAZINE MALEATE]: in data set [1], the “Average of % viability” value was 239.1 ± 38.37% and the Z score is listed as 6.57.

For `Nc1nc2c(ncn2COCCO)c(=O)[nH]1` [ACYCLOVIR], in data set [1], the “Average of % viability” value came out at 258.33 ± 14.16% and the Z score is reported as 7.44.

As for `NC(=O)c1ccc([N+](=O)[O-])cc1Cl` [AKLOMIDE], in data set [1], the “Average of % viability” value was found to be 276.60 ± 12.37% and the Z score is 8.26.

For `CN(C)c1nc(N(C)C)nc(N(C)C)n1` [ALTRETAMINE], in data set [1], the “Average of % viability” value is listed as 188.22 ± 2.87% and the Z score was 4.27.

In the case of `Nc1ccc(C(=O)NCC(=O)O)cc1` [AMINOHIPPURIC ACID], in data set [1], the “Average of % viability” value worked out at 207.49 ± 7.09% and the Z score is on record as 5.14.

As to `CCCCc1oc2ccccc2c1C(=O)c1cc(I)c(OCCN(CC)CC)c(I)c1` [AMIODARONE HYDROCHLORIDE], in data set [1], the Z score amounted to 3.37.

As to `O=C1O[C@H]([C@@H](O)CO)C(O)=C1O` [ASCORBIC ACID], the “Average of % viability” value in data set [1] turned out to be 181.48 ± 23.68%.

The compound `CC(C)NCC(O)COc1ccc(CC(N)=O)cc1` (centres unmarked) [ATENOLOL] registered a Z score in data set [1] of 3.51.

Consider `CC(C)COCC(CN(Cc1ccccc1)c1ccccc1)N1CCCC1` (centres unmarked) [BEPRIDIL HYDROCHLORIDE], for which, in data set [1], the “Average of % viability” value is given as 178.65 ± 3.48% and the Z score turned out to be 3.84.

In the case of `O=C(O)CCCC[C@@H]1SC[C@@H]2NC(=O)N[C@@H]21` [BIOTIN], in data set [1], the “Average of % viability” value is 315.95 ± 51.89% and the Z score stood at 10.04.

Consider `C[C@@]12C(=O)OC(=O)[C@]1(C)[C@H]1CC[C@@H]2O1` [CANTHARIDIN], for which, in data set [1], the “Average of % viability” value came to 239.59 ± 14.65% and the Z score is 6.59.

For the compound `CN1CCN(C(c2ccccc2)c2ccc(Cl)cc2)CC1` (centres unmarked) [CHLORCYCLIZINE HYDROCHLORIDE], in data set [1], the “Average of % viability” value was 238.84 ± 35.23% and the Z score came to 6.56.

For the compound `O=C(O)c1cc(-c2ccccc2)nc2ccccc12` [CINCHOPHEN], in data set [1], the “Average of % viability” value is 168.44 ± 44.63% and the Z score was found to be 3.38.

For `COC(=O)[C@H](c1ccccc1Cl)N1CCc2sccc2C1` [CLOPIDOGREL SULFATE], in data set [1], the “Average of % viability” value was found to be 194.84 ± 50.3% and the Z score is recorded as 4.57.

Regarding `CC(=O)OCC(=O)[C@@]1(O)CC[C@H]2[C@@H]3CCC4=CC(=O)CC[C@]4(C)[C@H]3C(=O)C[C@@]21C` [CORTISONE ACETATE], in data set [1], the “Average of % viability” value stood at 205.92 ± 12.32% and the Z score is given as 5.07.

Take `CN1C(=O)CC[C@H]1c1cccnc1` [COTININE]: in data set [1], the “Average of % viability” value was found to be 188.79 ± 56.0% and the Z score is on record as 4.30.

For `CC=CC(=O)N(CC)c1ccccc1C` [CROTAMITON], in data set [1], the “Average of % viability” value amounted to 178.25 ± 27.22% and the Z score came out at 3.82.

On to `Cn1c(=O)c2c(ncn2C)n(C)c1=O` [Caffeine], for which the “Effect on viability in hypotonic stress screen (in words)” value in data set [1] is “demonstrated the opposite effect”.

For `CN(C)/N=N/c1[nH]cnc1C(N)=O` [DACARBAZINE], in data set [1], the “Average of % viability” value is given as 177.63 ± 45.35% and the Z score came out at 3.79.

As to `COc1cccc2c1C(=O)c1c(O)c3c(c(O)c1C2=O)C[C@@](O)(C(=O)CO)C[C@@H]3O[C@H]1C[C@H](N)[C@H](O)[C@H](C)O1` [DOXORUBICIN], in data set [1], the “Average of % viability” value is 207.98 ± 34.29% and the Z score stood at 5.16.

For the compound `C[C@]12CC[C@@H]3c4ccc(OS(=O)(=O)O)cc4CC[C@H]3[C@@H]1CCC2=O` [ESTROPIPATE], in data set [1], the “Average of % viability” value turned out to be 208.65 ± 30.77% and the Z score stood at 5.19.

`CC(=O)O[C@H]1CC[C@@]2(C)[C@H](CC[C@@H]3[C@@H]2CC[C@]2(C)[C@@H](C4=CC(=O)OC4)[C@@H](OC(C)=O)C[C@]32O)C1` [GITOXIGENIN DIACETATE]: in data set [1], the “Average of % viability” value is listed as 177.20 ± 1.17% and the Z score turned out to be 3.77.

As to `O=C(CCCN1CCC(O)(c2ccc(Cl)cc2)CC1)c1ccc(F)cc1` [HALOPERIDOL], in data set [1], the “Average of % viability” value was determined as 197.30 ± 19.03% and the Z score is 4.68.

Take `NC(=O)NO` [HYDROXYUREA]: in data set [1], the “Average of % viability” value amounted to 187.65 ± 49.61% and the Z score was 4.25.

`CN1CCc2c(c3ccccc3n2Cc2ccccc2)C1.CN1CCc2c(c3ccccc3n2Cc2ccccc2)C1.O=S(=O)(O)c1cccc2c(S(=O)(=O)O)cccc12` [MEBHYDROLIN NAPHTHALENE SULFONATE] yielded a Z score in data set [1] of 3.58.

For `COc1ccc2cc([C@H](C)CO)ccc2c1` [NAPROXOL], in data set [1], the “Average of % viability” value is given as 168.76 ± 2.61% and the Z score is 3.39.

Turning to `O=C(O)C(O)C(O)C(=O)O.OCc1cccnc1` (centres unmarked) [NICOTINYL ALCOHOL TARTRATE], in data set [1], the “Average of % viability” value was found to be 262.12 ± 57.89% and the Z score is 7.61.

With `COCCOC(=O)C1=C(C)NC(C)=C(C(=O)OC(C)C)C1c1cccc([N+](=O)[O-])c1` (centres unmarked) [NIMODIPINE], in data set [1], the “Average of % viability” value came to 292.38 ± 56.17% and the Z score was 8.97.

With `CCOC(=O)C1=C(C)NC(C)=C(C(=O)OC)C1c1cccc([N+](=O)[O-])c1` (centres unmarked) [NITRENDIPINE], in data set [1], the “Average of % viability” value is 275.48 ± 52.16% and the Z score is recorded as 8.21.

As to `CCCCC1C(=O)N(c2ccccc2)N(c2ccc(O)cc2)C1=O` (centres unmarked) [OXYPHENBUTAZONE], the “Average of % viability” value in data set [2] was found to be 176.96 ± 42.53%. The compound further had a Z score in data set [1] of 3.76.

On to `COc1cc([C@@H]2c3cc4c(cc3[C@H](O)[C@H]3COC(=O)[C@H]23)OCO4)cc(OC)c1OC` [PODOFILOX], for which, in data set [1], the “Average of % viability” value was 168.46 ± 28.98% and the Z score is given as 3.38.

On to `CCCN(CCC)C(=O)C(CCC(=O)O)NC(=O)c1ccccc1` (centres unmarked) [PROGLUMIDE], for which, in data set [1], the “Average of % viability” value is 175.69 ± 50.35% and the Z score is 3.71.

Take `COc1ccc(C[C@H](N)C(=O)N[C@H]2[C@@H](O)[C@H](n3cnc4c(N(C)C)ncnc43)O[C@@H]2CO)cc1` [PUROMYCIN HYDROCHLORIDE]: in data set [1], the “Average of % viability” value came out at 187.84 ± 39.68% and the Z score worked out at 4.25.

Turning to `CCCCCCCCCCCCCCCC(=O)OC/C=C(C)/C=C/C=C(C)/C=C/C1=C(C)CCCC1(C)C` [RETINYL PALMITATE], in data set [1], the “Average of % viability” value stood at 236.79 ± 46.63% and the Z score is recorded as 6.46.

As for `CO[C@H]1C[C@H](O[C@@H]2/C(C)=C/C[C@@H]3C[C@@H](C[C@]4(CC[C@H](C)[C@@H](C5CCCCC5)O4)O3)OC(=O)[C@@H]3C=C(C)/C(=N/O)[C@H]4OC/C(=C\C=C\[C@@H]2C)[C@]43O)O[C@@H](C)[C@@H]1O` [SELAMECTIN], in data set [1], the “Average of % viability” value was found to be 172.91 ± 25.29% and the Z score was found to be 3.58.

Turning to `COc1ncnc(NS(=O)(=O)c2ccc(N)cc2)c1OC` [SULFADOXINE], in data set [1], the “Average of % viability” value came to 195.32 ± 23.52% and the Z score is 4.59.

Turning to `CC(C)(C)c1ccc(C(O)CCCN2CCC(C(O)(c3ccccc3)c3ccccc3)CC2)cc1` (centres unmarked) [TERFENADINE], in data set [1], the “Average of % viability” value came out at 211.28 ± 22.46% and the Z score is reported as 5.31.

As to `CCN(CC)CCOc1ccc2c(c1)C(=O)c1cc(OCCN(CC)CC)ccc1-2` [TILORONE], in data set [1], the “Average of % viability” value was found to be 172.53 ± 15.79% and the Z score is listed as 3.56.

As for `C[C@@H]1CC[C@@]2(OC1)O[C@H]1[C@@H](O)[C@H]3[C@@H]4CC[C@H]5C[C@@H](O[C@@H]6O[C@H](CO)[C@H](O[C@@H]7O[C@H](CO)[C@@H](O)[C@H](O[C@@H]8OC[C@@H](O)[C@H](O)[C@H]8O)[C@H]7O[C@@H]7O[C@H](CO)[C@H](O)[C@H](O[C@@H]8O[C@H](CO)[C@@H](O)[C@H](O)[C@H]8O)[C@H]7O)[C@H](O)[C@H]6O)[C@H](O)C[C@]5(C)[C@H]4CC[C@]3(C)[C@H]1[C@@H]2C` [digitonin], in data set [1], the Z score entry is “lowest Z score” and the “Effect on viability in hypotonic stress screen (in words)” value is recorded as “dose-responsive toxicity”.

As to ANTIMYCIN A, in data set [1], the “Average of % viability” value turned out to be 180.04 ± 1.89% and the Z score is 3.90.

Regarding BENZALKONIUM CHLORIDE, in data set [1], the “Average of % viability” value was 194.64 ± 23.10% and the Z score came to 4.56.

In turn, “gRNA 4: guide sequence GCTTTGGTGGGAAGAAGTAGAGG (SEQ ID NO: 8) targeting first muscle exon of human dystrophin (listed as DNA, chemistry not fully specified)” yielded a cutting efficiency in the data set with dystrophin locus of 44.3%.
